Reference: patent US20220251081A1, “HETEROBICYCLIC INHIBITORS OF MAT2A AND METHODS OF USE FOR TREATING CANCER” (priority 2019, published 2022)

How the values were obtained:
HCT116 MTAP +/+ = experiment: Inhibition of cellular proliferation, 4 days, Cell Titer Glo, HCT116 MTAP+/+; format: cell-based; details: Homo sapiens, HCT-116, 96 h, IC50 score, read-out: 4 Day Relative Growth Inhibition (MTAP +/+)
Experimental: (§1) Assay for Inhibition of Cellular Proliferation
(§2) Test compound impact on cancer cell growth was assessed by treating cancer cells with compound for 4 days and then measuring proliferation using an ATP-based cell proliferation readout (Cell Titer Glo, Promega Corporation).
(§3) In a typical assay an isogenic pair of HCT116 human colon carcinoma cell lines which vary only in MTAP deletion status (HCT116 MTAP +/+ and HCT116 MTAP−/−) were plated in 96-well dishes at appropriate cell density. Following 24 hours, cells were then treated with the candidate MAT2A inhibitor. Prior to addition to cells, the compound was first serially diluted in 100% DMSO, typically as a 3-fold serial dilution starting at 500× top dose with 10 dose points including DMSO only control. Compound was then transferred to a working stock plate in cell culture media by adding 5 μL of compound in DMSO to 495 μL of cell culture media. This working stock was then added to cells via a further 5-fold dilution, by adding 25 μL of working stock to 100 μL of cells in culture media. Following compound addition, cells were incubated at 37° C./5% C02 for 4 days.
(§4) To measure inhibition of cellular proliferation, cells were allowed to equilibrate to room temperature for 30 minutes, and were then treated with 125 μL of Cell Titer Glo reagent. The plate was then covered with aluminum foil and shaken for 15 minutes to ensure complete mixing and full cell lysis. Luminescent signal was then measured using a plate-based luminometer Veritas version 1.9.2 using ATP standard curve to confirm assay reproducibility from run to run. This luminescence measure was converted to a proliferation index by subtracting from each data point the ATP luminescence signal measured from a bank (no cells) well and dividing by the ATP luminescence signal measured in 0.2% DMSO control well adjusted for signal in blank well. Compound activity was then represented as a percentage change in proliferation relative to a within-plate DMSO control against log 10 of compound concentration in molar (M) units.

[1] = system: SAM in HCT116 human colon carcinoma cell line with deleted MTAP gene; experiment: Cellular assay of target engagement (SAM): SAM level by LC-MS/MS after 72 hrs; format: cell-based; details: HCT-116, IC50 score, read-out: Cell 72 h SAM Inhibition (MTAP −/−)
Experimental: Cellular Assay of Target Engagement (SAM)
Measurement of MAT2A activity in cells was made by direct quantitation of the abundance of the product of its enzymatic activity, SAM. Cancer cells were treated with candidate MAT2A inhibitors for a suitable incubation period, and the cells were then lysed using a reagent which quenched any further enzyme activity. Soluble metabolites including SAM were collected and SAM itself was directly measured from the lysate using quantitative LC-MS/MS.
A typical assay was performed using an HCT116 human colon carcinoma cell line which was genetically engineered to delete the MTAP gene (commercially available from Horizon Discovery). This cell line was utilized because it was determined that loss of the MTAP gene predicts sensitivity to MAT2A inhibitors. Cells were plated in 96-well dishes at appropriate cell density. Following 24 hours, cells were then treated with the candidate MAT2A inhibitor. Prior to addition to cells, the compound was first serially diluted in 100% DMSO, typically as a 3-fold serial dilution starting at 500× top dose with 10 dose points including DMSO only control. Compound was then transferred to a working stock plate in cell culture media by adding 5 μL of compound in DMSO to 495 μL of cell culture media. This working stock was then added to cells via a further 5-fold dilution, by adding 25 μL of working stock to 100 μL of cells in culture media. Following compound addition, cells were incubated at 37° C./5% CO2 for 72 hrs.
To quantitate SAM levels following compound treatment, cells were gently washed once in ammonium carbonate buffer (75 mM at pH 7.4), placed on dry ice, and lysed with metabolite extraction buffer (80% cold methanol and 20% water (v/v) with acetic acid at 1M final concentration with 200 ng/mL deuterated d3-SAM as internal control). Following centrifugation at 4° C. at 3,200 rpm for 30 minutes, the supernatant was collected and stored at −80° C. until analysis by Liquid Chromatography with tandem Mass Spectrometry (LC-MS/MS). LC-MS/MS analysis was performed using an API6500 Mass Spectrometer (Sciex, Framingham, Mass., USA) operating in positive ion spray mode and equipped with a Waters UPLC Acquity (Waters, Milford, Mass., USA) BEH Amide column. Multiple Reaction Monitoring data was acquired for SAM and the d3-SAM standard, using a mass transition pair at m/z 399.2→250.1 and 402.2→250.1, respectively. In a typical LC-MS/MS analysis, the initial flow rate was 0.5 ml/min of 25% mobile phase A (acetonitrile and water at 5:95 (v/v) with 1% formic acid and 10 mM ammonium acetate) and 75% mobile phase B (acetonitrile and water at 95:5 (v/v) with 1% formic acid and 10 mM ammonium acetate), 0.2-0.5 minutes with 75%-35% mobile phase B, 25%-65% mobile phase A, at 0.5 min 65% mobile phase A and 35% mobile phase B, 1.0-1.1 minutes with 35%-75% mobile phase B, 65%-25% mobile phase A, at 1.1 min 25% mobile phase A and 75% mobile phase B with a total run time of 1.5 minutes.

HCT116 MTAP-/- = experiment: Inhibition of cellular proliferation, 4 days, Cell Titer Glo, HCT116 MTAP-/-; format: cell-based; details: Homo sapiens, HCT-116, 96 h, IC50 score, read-out: 4 Day Relative Growth Inhibition (MTAP −/−)
Experimental: as §1, §2, §3, §4

MAT2A homodimer = target: T1, MAT2A homodimer (Homo sapiens, UniProt P31153); experiment: Biochemical assay: inhibition of recombinant MAT2A homodimer (phosphate release, PiColorLock Gold); details: MAT2A IC50 score; read-out: Enzyme Inhibition
T1 construct: inferred from Ni sepharose purification and imidazole elution; made in house; host or cells: Sf9 insect cells, recombinant baculovirus (Bac to Bac, pFASTBAC1 vector)
T1 sequence (P31153 whole entry): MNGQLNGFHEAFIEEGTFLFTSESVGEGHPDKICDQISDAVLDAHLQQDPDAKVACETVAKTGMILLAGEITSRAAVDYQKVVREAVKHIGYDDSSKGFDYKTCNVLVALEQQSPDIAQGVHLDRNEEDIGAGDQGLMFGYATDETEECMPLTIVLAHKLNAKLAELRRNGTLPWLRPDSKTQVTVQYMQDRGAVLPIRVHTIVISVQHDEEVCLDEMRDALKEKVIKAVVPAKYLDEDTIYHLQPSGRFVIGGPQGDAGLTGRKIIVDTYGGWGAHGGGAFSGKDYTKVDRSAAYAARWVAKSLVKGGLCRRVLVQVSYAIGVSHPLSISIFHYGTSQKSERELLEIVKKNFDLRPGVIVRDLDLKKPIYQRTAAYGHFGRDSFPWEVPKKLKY
How it was run: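 Baculovirus/Sf9-expressed, Ni-purified MAT2A at 4 μg/mL in pH 8.0 Tris/KCl/MgCl2/EDTA/BSA buffer, preincubated with compound 60 min at 25 °C. Started with ATP and L-methionine substrate mix (500 μM and 40 μM, stock in mix), 60 min at 25 °C; released phosphate by PiColorLock Gold against a phosphate standard curve.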

| Compound | IC50 (HCT116 MTAP +/+) [nM] | IC50 [1] [nM] | IC50 (HCT116 MTAP-/-) [nM] | IC50 (MAT2A homodimer) [nM] |
| --- | --- | --- | --- | --- |
| [2H]C([2H])([2H])Oc1ccc(-n2c(=O)c(-c3ccc4nn(C)cc4c3)cc3ccc(OC([2H])([2H])C([2H])([2H])[2H])nc32)cc1 [Example 301] | 100 to 1000 | < 100 | < 100 | < 100 |
| COc1ccc(-n2c(=O)c(-c3ccc4nccnc4c3)cc3cnc(NCC(F)(F)F)nc32)cc1 [Example 185] | ≥ 1000 | < 100 | 100 to 1000 | < 100 |
| [2H]C([2H])([2H])Oc1ccc(-n2c(=O)c(-c3ccc4nn(C)cc4c3)cc3ncc(OCC(F)(F)F)nc32)cc1 [Example 345] | ≥ 1000 | < 100 | 100 to 1000 | < 100 |
| COc1ccc(-c2cc3cnc(NCC(F)(F)F)nc3n(-c3ccc(O)cc3)c2=O)cc1 [Example 106] | ≥ 1000 | 100 to 1000 | 100 to 1000 | 100 to 1000 |
| COc1ccc(-n2c(=O)c(-c3ccc4nn(C)cc4c3)cc3ncc(OCC(F)(F)F)nc32)cc1 [Example 343, 5-(4-methoxyphenyl)-7-(2-methyl-2H-indazol-5-yl)-3-(2,2,2-trifluoroethoxy)pyrido[2,3-b]pyrazin-6(5H)-one] | ≥ 1000 | < 100 | < 100 | < 100 |
| COc1ccc(-c2cc3cnc(NCC(F)(F)F)nc3n(-c3ccc(C4CC4)cc3)c2=O)cc1 [Example 118] | ≥ 1000 | < 100 | < 100 | < 100 |
| COc1ccc(-c2cc3cnc(NCC(F)(F)F)nc3n(-c3ccc(CCO)cc3)c2=O)cc1 [Example 129] | ≥ 1000 | < 100 | < 100 | < 100 |
| COc1ccc(-n2c(=O)c(-c3ccc4nn(C)cc4c3)cc3ccc(OCC(F)(F)F)nc32)cn1 [Example 123] | ≥ 1000 | < 100 | < 100 | < 100 |
| COc1ccc(-n2c(=O)c(-c3ccc4ncccc4c3)cc3cnc(NCC(F)(F)F)nc32)cc1 [Example 116] | ≥ 1000 | < 100 | < 100 | < 100 |
| COc1ccc(-c2cc3cnc(NCC(F)(F)F)nc3n(-c3ccc(-c4nc[nH]n4)cc3)c2=O)cc1 [Example 101, 8-(4-(1H-1,2,4-triazol-3-yl)phenyl)-6-(4-methoxyphenyl)-2-(2,2,2-trifluoroethylamino)pyrido[2,3-d]pyrimidin-7(8H)-one] | ≥ 1000 | < 100 | 100 to 1000 | < 100 |
| COc1ccc(-n2c(=O)c(-c3ccc4ncsc4c3)cc3cnc(NCC(F)(F)F)nc32)cc1 [Example 188] | ≥ 1000 | < 100 | 100 to 1000 | < 100 |

Now from value to compound:

| IC50 (HCT116 MTAP +/+) [nM] | IC50 [1] [nM] | IC50 (HCT116 MTAP-/-) [nM] | IC50 (MAT2A homodimer) [nM] | Compound |
| --- | --- | --- | --- | --- |
| ≥ 1000 | < 100 | < 100 | < 100 | [2H]C([2H])([2H])Oc1ccc(-n2c(=O)c(-c3ccc4nn(C)cc4c3)cc3ccc(O[C@@H](C)C(F)(F)F)nc32)cc1 [Example 305] |
| ≥ 1000 | < 100 | < 100 | < 100 | CCOc1ccc2cc(-c3ccc4ncsc4c3)c(=O)n(-c3ccc(Cl)cc3)c2n1 [Example 203] |
| ≥ 1000 | < 100 | < 100 | < 100 | CCOc1ccc2cc(-c3ccc4nncn4c3)c(=O)n(-c3ccc(OC(F)F)cc3)c2n1 [Example 216] |
| ≥ 1000 | < 100 | < 100 | < 100 | COc1ccc(-n2c(=O)c(-c3ccc4nn(C)cc4c3)cc3ccc(OCC(F)(F)F)nc32)cc1 [Example 313] |
| ≥ 1000 | < 100 | < 100 | < 100 | Cn1cnc2ccc(-c3cc4ccc(NCC(F)(F)F)nc4n(-c4ccc(OC(F)F)cc4)c3=O)cc21 [Example 135] |
| ≥ 1000 | < 100 | < 100 | < 100 | CCOc1ccc2cc(-c3ccc4nncn4c3)c(=O)n(-c3ccc(OC)cc3)c2n1 [Example 217] |
| ≥ 1000 | < 100 | < 100 | < 100 | CCOc1ccc2cc(-c3ccc4nn(C)cc4c3)c(=O)n(-c3ccc4scnc4c3)c2n1 [Example 150] |
| 100 to 1000 | < 100 | < 100 | < 100 | CCOc1ccc2cc(-c3ccc4nccn4c3)c(=O)n(-c3ccc(OC(F)F)cc3)c2n1 [Example 210] |
| 100 to 1000 | < 100 | 100 to 1000 | < 100 | CCOc1ccc2cc(-c3ccc4nn(CC(C)(C)O)cc4c3)c(=O)n(-c3ccc(OC(F)F)cc3)c2n1 [Example 207] |
| ≥ 1000 | < 100 | < 100 | < 100 | Cn1cc2cc(-c3nc4ccc(OCC(F)(F)F)nc4n(-c4ccc(OC(F)F)cc4)c3=O)ccc2n1 [Example 328] |
| ≥ 1000 | 100 to 1000 | 100 to 1000 | < 100 | CCOc1ccc2cc(-c3ccc(OC)cc3)c(=O)n(-c3ccc(OC(F)F)nc3)c2n1 [Example 158] |
| ≥ 1000 | < 100 | < 100 | < 100 | CCOc1ccc2cc(-c3ccc4nncn4c3)c(=O)n(-c3ccc(Cl)cc3)c2n1 [Example 205] |
| ≥ 1000 | < 100 | < 100 | < 100 | Cn1cc2cc(-c3cc4ccc(OCC(F)(F)F)nc4n(-c4ccc(Cl)cc4)c3=O)ccc2n1 [Example 119, 1-(4-chlorophenyl)-3-(2-methyl-2H-indazol-5-yl)-7-(2,2,2-trifluoroethoxy)-1,8-naphthyridin-2(1H)-one] |
| ≥ 1000 | < 100 | < 100 | < 100 | CCOc1ccc2cc(-c3ccc4nn(C)nc4c3)c(=O)n(-c3ccc(Cl)cc3)c2n1 [Example 201] |
| ≥ 1000 | < 100 | < 100 | < 100 | COc1ccc(-c2cc3ncc(NCC(F)(F)F)nc3n(-c3ccc(OC(F)F)cc3)c2=O)cc1 [Example 237, 5-(4-(difluoromethoxy)phenyl)-7-(4-methoxyphenyl)-3-((2,2,2-trifluoroethyl)amino)pyrido[2,3-b]pyrazin-6(5H)-one] |
